One compound from patent US20160193240A1, “Ulmoside-A: Useful For Prevention Or Cure Of Metabolic Diseases” (COUNCIL OF SCIENTIFIC & INDUSTRIAL RESEARCH, priority 2013, published 2016) can be followed below.

In general, Kd refers to a measure of binding affinity in units of concentration.

Marks after values point to notes of the source that are not given here.

The test system of series [1] is wistar rats. As to the kind of experiment: Dexamethasone-induced skeletal muscle atrophy in rats (limb appearance, QRT-PCR of PGC-1α and atrogenes). It counts as in vivo, rat. As for the experimental part:
Following 15 d indicated treatment of rats, the skeletal muscle (pulled hind limb) were collected and RNA was extracted from them and QRT-PCR was performed in a Roche lightcycler 480 machine. Data represents mean+/−SEM from six animals done in triplicates. “a” statistical analysis between Vehicle and Dexamethasone-treated groups, “b”, statistical analysis between dex-treated and dex+ ULMA groups. P<0.05, as determined by student's t-test, n=6.
Blood was collected from cardiac punctures.
RNA was isolated from skeletal muscles using Trizol (according to manufacturers' protocol) and reverse transcribed as described above and either PGC-1α expression or muscle atrophy related genes (atrogenes) expression were examined.

Series [2] concerns wistar rats. As to the kind of experiment: Dexamethasone induced loss of body weight and death in rats. The following applies: for Final body weight (g) / Survival/group (%): 2 weeks. As for the experimental part:
All animal experiments were conducted in accordance with current legislation on animal experiments [Institutional Animal Ethical Committee (IAEC)] at C.D.R.I. In all animal experiments, rats were individually housed at 21° C., in 12-h light:12-h dark cycles. All animals had access to normal chow diet and water ad libitum.
Food intake was measured daily and the rats were weighed each week. The rats were fasted overnight (O/N) on day 14th and on day 15th oral glucose tolerance test was performed. Following oral glucose tolerance test (OGTT), rats were kept with food and water ad libitum for one day. On day 16th, rats were fasted again O/N and then euthanized. At autopsy, from 5 animals/group, tissues were collected and snap frozen in liquid nitrogen. Blood was collected from cardiac punctures. Plasma was separated from whole blood by centrifugation at 3000 rpm for 20 min immediately after collection of blood and stored at −80° C. until further analysis. […] (quadriceps) skeletal muscles were processed for RNA and protein extraction, followed by quantitative real-time PCR (QRT-PCR) analysis. Two animals from each group were used for photography post autopsy.

Series [3] has as its target T1, AdipoR2 (Homo sapiens, UniProt Q86V24).
T1 construct: expressed in transfected cells; host or cells: Chinese Hamster Ovary cells (ECACC 85050302), transient transfection with Lipofectamine LTX
T1 sequence (Q86V24 1-386): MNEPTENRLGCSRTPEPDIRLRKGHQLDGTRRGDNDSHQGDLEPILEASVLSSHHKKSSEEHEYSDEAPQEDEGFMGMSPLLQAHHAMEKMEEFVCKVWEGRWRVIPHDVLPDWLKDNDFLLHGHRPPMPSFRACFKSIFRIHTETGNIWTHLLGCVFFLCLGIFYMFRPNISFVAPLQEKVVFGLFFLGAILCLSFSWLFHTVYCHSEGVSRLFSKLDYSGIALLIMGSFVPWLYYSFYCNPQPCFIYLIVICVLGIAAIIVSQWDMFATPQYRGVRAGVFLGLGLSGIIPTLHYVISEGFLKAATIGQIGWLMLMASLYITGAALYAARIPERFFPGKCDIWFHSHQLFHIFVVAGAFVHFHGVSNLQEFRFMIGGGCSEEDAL
In words: Radio-ligand saturation binding assay with 125I-ULMA, CHO cells transfected with AdipoR2. As for the experimental part: D. CHO cells transfected with empty vector or AdipoR1 or R2 expression vectors were incubated with various concentrations of ^125I-ULMA for 2 h at 4° C. Following washes, cells were lysed and count per minute was analyzed in a gamma counter. 200 fold molar excess of unlabeled ULMA was used for each concentration of radiolabeled ULMA for determining nonspecific activity. Count per minutes were normalized with total cellular protein content followed by further normalization with non-specific activity and plotted. Data is mean±SEM from three experiments performed in triplicates.
Further validation of AdipoR-ULMA interaction and its quantitation was done using a radio-ligand saturation binding assay using ^125I-ULMA. ULMA was first radiolabeled using chloramines-T method. 10 μl of ^125I (20 MBq; BARC, Mumbai, India) was added to 100 μg GTDF in 5% acetic acid/methanol, then chloramine-T (Sigma, 4 μg in MilliQ H2O) was added, and the mixture was allowed to react at room temperature (24° C.) for 5 min. […] was used for protein estimation using standard Bradford assay and rest of the lysate was used for measuring radioactivity in a gamma-counter (Cole Palmer). The count per minute was normalized with protein concentration and was further normalized with non specific binding, which was determined for every concentration of ^125I-ULMA, using 200 fold molar excess of unlabeled ULMA.

Consider `O=C1c2c(cc(O)c([C@@H]3O[C@H](CO)[C@@H](O)[C@H](O)[C@H]3O)c2O)O[C@@H](c2ccc(O)c(O)c2)[C@@H]1O` [ULMA, (2S,3S)-(+)-3′,4′,5,7-tetrahydroxydihydroflavonol-6-C-β-D-glucopyranoside], for which, in series [1] (Dex + ULMA), the “Dex-caused reduction of skeletal muscle PGC-1α level” value is given as “protected” and the “protection against induction of atrogenes by dexamethasone” value is given as “completely protected”. The “skeletal muscle PGC-1α expression” value in series [1] (ULMA alone) is reported as “robust induction”. In series [1] (ULMA co-treatment with Dex), the Dex-induced limb abnormality entry is on record as “prevented it”. Besides, in series [2] (Dex + ULMA-1 mg), the “Final body weight (g)” value is recorded as 176.5 ± 5.9^c g and the “Survival/group (%)” value was 73.3%. In series [2] (Dex + ULMA-5 mg), the “Final body weight (g)” value is recorded as 192.7 ± 3.8^b,c g and the “Survival/group (%)” value is given as 100%. Also, the “change in body weight in control animals” value in series [2] (rat, in vivo) is listed as “did not cause any significant change”. In addition, in series [3], the “maximum binding (BMAX)” value is on record as 3950 fmol/mg of protein. For the same compound, the Kd in series [3] (2 hours, ice cold, read-out: dissociation constant (Kd)) was 326 nM.
